23 compounds from patent US11833156B2, “Heterocyclic compounds as pad inhibitors” (JUBILANT EPIPAD LLC, priority 2017, dated 2023) can be followed below.

Experiment [1] addresses T1, PAD4 enzyme (Homo sapiens (Human), UniProt Q9UM07). Briefly: Ammonia Release Biochemical Assay (citrullination detected via ammonia release). The following applies: PAD4 120 nM, substrate BAEE, 60-min preincubation, read-out: NH3 release. The procedure: Ammonia Release Biochemical Assay
Citrullination assay was detected via ammonia release. PAD4 enzyme was diluted to 120 nM in assay buffer (100 mM HEPES, 50 mM NaCl, 2 mM DDT, 0.6 mg/mL BSA, pH 7.4) added to wells containing various concentration of compound or DMSO vehicle (1% final) in black 384 well plate. Following a 60-min preincubation at room temperature, the reaction was initiated by the addition of substrate (1.5 mM BAEE in 200 mM HEPES, 50 mM NaCl, 350 uM CaCl2, 2 mM, pH 7.4). The reaction was stopped after 60 min by addition of stop/detection buffer containing 50 mM EDTA, 2.6 mM of o-phthaladehyde and 2.6 mM DTT. Assay was incubated at room temperature for 90 min before measuring fluorescence's (λex 405/λem 460 nm) on Tecan reader. IC50 was calculated using XL-fit software model 205. (Ref: Nat Chem Biol. 2015 March; 11(3):189-91).

Experiment [2] has as its target T1, PAD4 enzyme. Briefly: FP Binding Assay. Conditions: for IC50: PAD4 1 uM, 10 nM fluorescein labelled probe JPAD-00085. The method, then: Binding of compounds with PAD4 enzyme was detected by FP assay. PAD4 enzyme was diluted to 1 uM in assay buffer (100 mM HEPES, 50 mM NaCl, 1 mM DTT, 5% Glycerol and 1 mM CHAPS) and added to wells containing various concentration of compounds or DMSO vehicle (1%) in a 384 well black plate. 10 nM of fluorescein labelled probe (JPAD-00085) was added to the plate. Assay plate was incubated for 60 minutes at room temperature before measuring FP reading at FP module (λex 485/λem 535 nm) on Pherastar. IC50 was calculated using XL-fit software model 205. (Ref: Nat Chem Biol. 2015 March; 11(3):189-91).

T1 sequence (Q9UM07 whole entry): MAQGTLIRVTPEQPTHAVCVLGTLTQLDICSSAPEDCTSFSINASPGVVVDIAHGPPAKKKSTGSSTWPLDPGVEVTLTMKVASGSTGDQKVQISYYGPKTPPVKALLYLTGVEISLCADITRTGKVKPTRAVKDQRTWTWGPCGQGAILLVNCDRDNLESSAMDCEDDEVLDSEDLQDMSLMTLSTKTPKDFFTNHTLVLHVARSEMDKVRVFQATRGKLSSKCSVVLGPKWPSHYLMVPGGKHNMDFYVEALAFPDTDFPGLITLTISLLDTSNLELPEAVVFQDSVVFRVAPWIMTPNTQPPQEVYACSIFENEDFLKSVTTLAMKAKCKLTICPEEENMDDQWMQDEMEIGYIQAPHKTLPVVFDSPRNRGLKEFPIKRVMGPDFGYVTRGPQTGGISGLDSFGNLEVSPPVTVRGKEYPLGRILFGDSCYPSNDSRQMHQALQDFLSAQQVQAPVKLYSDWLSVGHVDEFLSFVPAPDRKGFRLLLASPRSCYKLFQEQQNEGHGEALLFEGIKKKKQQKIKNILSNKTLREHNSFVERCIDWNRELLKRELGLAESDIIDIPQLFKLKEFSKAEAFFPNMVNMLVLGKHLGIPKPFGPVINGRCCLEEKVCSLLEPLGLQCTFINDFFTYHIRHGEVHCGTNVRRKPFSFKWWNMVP

With `N[C@@H]1CCCN(C(=O)c2cc3c4c(c2)nc(-c2cc5ccccc5n2Cc2cccnc2)n4CCN3)C1` [Example 66, (R)-(3-aminopiperidin-1-yl)(2-(1-(pyridin-3-ylmethyl)-1H-indol-2-yl)-5,6-dihydro-4H-imidazo [1,5,4-de]quinoxalin-8-yl)methanone], the IC50 in experiment [1] is ≤ 1 µM; in experiment [2], 1 to 10 µM. With `N[C@@H]1CCCN(C(=O)c2cc3c4c(c2)nc(-c2cc5cc(F)c(F)cc5n2CC2CC2)n4CCN3)C1` [Example 77, (R)-(3-aminopiperidin-1-yl)(2-(1-(cyclopropylmethyl)-5,6-difluoro-1H-indol-2-yl)-5,6-dihydro-4H-imidazo[1,5,4-de]quinoxalin-8-yl)methanone], the “inhibition of PAD4 enzyme activity in FP Binding assay” value (shortened to “inhibition of PAD4 enzyme activity”) in experiment [2] is on record as “actively inhibiting PAD4 enzyme activity”. For `CCn1c(-c2nc3cc(C(=O)N4CCC[C@@H](N)C4)cc4c3n2CCO4)cc2cccnc21` [Example 5, (R)-(3-aminopiperidin-1-yl)(2-(1-ethyl-1H-pyrrolo[2,3-b]pyridin-2-yl)-3,4-dihydro-5-oxa-1,2a-diazaacenaphthylen-7-yl)methanone], the IC50 in experiment [1] and in experiment [2] was 1 to 10 µM each time. Regarding `N[C@@H]1CCCN(C(=O)c2cc3c4c(c2)nc(-c2cc5ccc(F)cc5n2CC2CC2)n4CCN3)C1` [Example 65, (R)-(3-aminopiperidin-1-yl)(2-(1-(cyclopropylmethyl)-6-fluoro-1H-indol-2-yl)-5,6-dihydro-4H-imidazo [1,5,4-de]quinoxalin-8-yl)methanone], the IC50 in experiment [1] and in experiment [2] was ≤ 1 µM in each case. With `N[C@@H]1CCCN(C(=O)c2cc3c4c(c2)nc(-c2cc5ccccc5n2Cc2ccccc2)n4CCO3)C1` [Example 18, (R)-(3-aminopiperidin-1-yl)(2-(1-benzyl-1H-indol-2-yl)-3,4-dihydro-5-oxa-1,2a-diazaacenaphthylen-7-yl)methanone], the IC50 is ≤ 1 µM in experiment [1] and 1 to 10 µM in experiment [2]. Turning to `CN1CCn2c(-c3cc4ccccc4n3CC3CC3)nc3cc(C(=O)N4CCC[C@@H](N)C4)cc1c32` [Example 72, (R)-(3-aminopiperidin-1-yl)(2-(1-(cyclopropylmethyl)-1H-indol-2-yl)-6-methyl-5,6-dihydro-4H-imidazo[1,5,4-de]quinoxalin-8-yl)methanone], the “inhibition of PAD4 enzyme activity” value in experiment [2] is on record as “actively inhibiting PAD4 enzyme activity”. As to `N[C@@H]1CCCN(C(=O)c2cc3c4c(c2)nc(-c2cc5ccccc5n2CC2CC2)n4CCO3)C1` [Example 1, (R)-(3-aminopiperidin-1-yl)(2-(1-(cyclopropylmethyl)-1H-indol-2-yl)-3,4-dihydro-5-oxa-1,2a-diazaacenaphthylen-7-yl)methanone], the IC50 in experiment [2] fell in the range of 1 to 10 µM. For the compound `COc1ccc(Cn2c(-c3nc4cc(C(=O)N5CCC[C@@H](N)C5)cc5c4n3CCO5)cc3ccccc32)cc1` [Example 19, (R)-(3-aminopiperidin-1-yl)(2-(1-(4-methoxybenzyl)-1H-indol-2-yl)-3,4-dihydro-5-oxa-1,2a-diazaacenaphthylen-7-yl)methanone], the “inhibition of PAD4 enzyme activity” value in experiment [2] was “actively inhibiting PAD4 enzyme activity”. Regarding `N[C@@H]1CCCN(C(=O)c2cc3c4c(c2)nc(-c2cc5ccccc5n2Cc2ccccc2F)n4CCO3)C1` [Example 14, (R)-(3-aminopiperidin-1-yl)(2-(1-(2-fluorobenzyl)-1H-indol-2-yl)-3,4-dihydro-5-oxa-1,2a-diazaacenaphthylene-7-yl)methanone], in experiment [1], the IC50 lay in the range of 1 to 10 µM. Moreover, the “inhibition of PAD4 enzyme activity” value in experiment [2] is “actively inhibiting PAD4 enzyme activity”. For the compound `COc1cc2cc(-c3nc4cc(C(=O)N5CCC[C@@H](N)C5)cc5c4n3CCO5)n(CC3CC3)c2cc1OC` [Example 17, (R)-(3-aminopiperidin-1-yl)(2-(1-(cyclopropylmethyl)-5,6-dimethoxy-1H-indol-2-yl)-3,4-dihydro-5-oxa-1,2a-diazaacenaphthylen-7-yl)methanone], the IC50 in experiment [1] was ≤ 1 µM; in experiment [2], 1 to 10 µM.

As for `CS(=O)(=O)N1CCn2c(-c3cc4ccccc4n3CC3CC3)nc3cc(C(=O)N4CCC[C@@H](N)C4)cc1c32` [Example 76, (R)-(3-aminopiperidin-1-yl)(2-(1-(cyclopropylmethyl)-1H-indol-2-yl)-6-(methylsulfonyl)-5,6-dihydro-4H-imidazo[1,5,4-de]quinoxalin-8-yl)methanone], the IC50 is ≤ 1 µM in experiment [1] and 1 to 10 µM in experiment [2]. The like results for `N[C@@H]1CCCN(C(=O)c2cc3c4c(c2)nc(-c2cc5ccccc5n2Cc2cccnc2)n4CCO3)C1` [Example 16, (R)-(3-aminopiperidin-1-yl)(2-(1-(pyridin-3-ylmethyl)-1H-indol-2-yl)-3,4-dihydro-5-oxa-1,2a-diazaacenaphthylen-7-yl)methanone] were, in that order, ≤ 1 µM and 1 to 10 µM. For `N[C@@H]1CCCN(C(=O)c2cc3c4c(c2)nc(-c2cc5ccccc5n2Cc2ccncc2F)n4CCO3)C1` [Example 24, (R)-(3-aminopiperidin-1-yl)(2-(1-((3-fluoropyridin-4-yl)methyl)-1H-indol-2-yl)-3,4-dihydro-5-oxa-1,2a-diazaacenaphthylen-7-yl)methanone], the IC50 in experiment [1] was ≤ 1 µM. Turning to `COc1ccc2cc(-c3nc4cc(C(=O)N5CCC[C@@H](N)C5)cc5c4n3CCN5)n(CC3CC3)c2c1` [Example 73, (R)-(3-aminopiperidin-1-yl)(2-(1-(cyclopropylmethyl)-6-methoxy-1H-indol-2-yl)-5,6-dihydro-4H-imidazo[1,5,4-de]quinoxalin-8-yl)methanone], in experiment [2], the “inhibition of PAD4 enzyme activity” value was “actively inhibiting PAD4 enzyme activity”. For the compound `N[C@@H]1CCCN(C(=O)c2cc3c4c(c2)nc(-c2cc5ccccc5n2Cc2ccc(F)cc2)n4CCO3)C1` [Example 15, (R)-(3-aminopiperidin-1-yl)(2-(1-(4-fluorobenzyl)-1H-indol-2-yl)-3,4-dihydro-5-oxa-1,2a-diazaacenaphthylen-7-yl)methanone], the IC50 is ≤ 1 µM in experiment [1] and 1 to 10 µM in experiment [2]. With `COc1ccc2c(c1)cc(-c1nc3cc(C(=O)N4CCC[C@@H](N)C4)cc4c3n1CCO4)n2CC1CC1` [Example 60, (R)-(3-aminopiperidin-1-yl)(2-(1-(cyclopropylmethyl)-5-methoxy-1H-indol-2-yl)-3,4-dihydro-5-oxa-1,2a-diazaacenaphthylen-7-yl)methanone], the IC50 in experiment [1] is ≤ 1 µM. Same read-out and setting: in the case of `N[C@@H]1CCN(C(=O)c2cc3c4c(c2)nc(-c2cc5ccccc5n2CC2CC2)n4CCCO3)C1` [Example 7, (R)-(3-aminopyrrolidin-1-yl)(1-(1-(cyclopropylmethyl)-1H-indol-2-yl)-8,9-dihydro-7H-6-oxa-2,9a-diazabenzo[cd]azulen-4-yl)methanone] it was 1 to 10 µM. For `N[C@@H]1CCCN(C(=O)c2cc3c4c(c2)nc(-c2cc5ccc(F)c(Cl)c5n2CC2CC2)n4CCO3)C1` [Example 87, (R)-(3-aminopiperidin-1-yl)(2-(7-chloro-1-(cyclopropylmethyl)-6-fluoro-1H-indol-2-yl)-3,4-dihydro-5-oxa-1,2a-diazaacenaphthylen-7-yl)methanone], in experiment [1], the IC50 was ≤ 1 µM. Same read-out and setting: in the case of `N[C@@H]1CCCN(C(=O)c2cc3c4c(c2)nc(-c2cc5ccccc5n2CCO)n4CCO3)C1` [Example 22, (R)-(3-aminopiperidin-1-yl)(2-(1-(2-hydroxyethyl)-1H-indol-2-yl)-3,4-dihydro-5-oxa-1,2a-diazaacenaphthylen-7-yl)methanone] it was ≤ 1 µM. Turning to `N[C@@H]1CCCN(C(=O)c2cc3c4c(c2)nc(-c2cc5ccccc5n2CC2COC2)n4CCO3)C1` [Example 44, (R)-(3-aminopiperidin-1-yl)(2-(1-(oxetan-3-ylmethyl)-1H-indol-2-yl)-3,4-dihydro-5-oxa-1,2a-diazaacenaphthylen-7-yl)methanone], in experiment [1], the IC50 is 1 to 10 µM. The same measure, in the same setting: with `CC(C)Cn1c(-c2nc3cc(C(=O)N4CCC[C@@H](N)C4)cc4c3n2CCO4)cc2ccccc21` [Example 31, (R)-(3-aminopiperidin-1-yl)(2-(1-isobutyl-1H-indol-2-yl)-3,4-dihydro-5-oxa-1,2a-diazaacenaphthylen-7-yl)methanone] the figure was ≤ 1 µM. Still for that read-out and setting: in the case of `N[C@@H]1CCCN(C(=O)c2cc3c4c(c2)nc(-c2cc5ccccc5n2Cc2cnccn2)n4CCO3)C1` [Example 25, (R)-(3-aminopiperidin-1-yl)(2-(1-(pyrazin-2-ylmethyl)-1H-indol-2-yl)-3,4-dihydro-5-oxa-1,2a-diazaacenaphthylen-7-yl)methanone] it was ≤ 1 µM. `N[C@@H]1CCCN(C(=O)c2cc3c4c(c2)nc(-c2cc5ccccc5n2CC(F)F)n4CCO3)C1` [Example 47, (R)-(3-aminopiperidin-1-yl)(2-(1-(2,2-difluoroethyl)-1H-indol-2-yl)-3,4-dihydro-5-oxa-1,2a-diazaacenaphthylen-7-yl)methanone]: in experiment [1], the IC50 was ≤ 1 µM.
